Data set [1] is described as follows: Liver microsome stability, rat. It is filed as in vitro ADME, Rat (pooled Sprague Dawley; male). To be noted: male, Sprague Dawley; rat liver microsomes, 1 μM compound, 0.5 mg/ml microsomal protein, 37° C., 2 mM NADPH. Here is the method: The stability of the title compound in the presence of liver microsomes was tested at 1 μM compound and 0.5 mg/ml rat or human microsomal protein, at 37° C. with 2 mM NADPH (standard in vitro screening concentrations). […] The “t1/2” values are the maximum time employed for the respective assays.
For orientation: Liver microsomes are vesicles of endoplasmic reticulum, rich in cytochrome P450 enzymes.

The nature of data set [2]: Solution stability in PBS, simulated gastric fluid and simulated intestinal fluid. It is filed as physicochemical. To be noted: 37° C. Here is the method: The stability of the title compound was tested in the following media, in the following concentrations: (i) 1 μM in mouse (male C57BL/6) plasma, (ii) 1 μM in PBS (with Ca and Mg) (control treatment); (iii) 5 μM in stimulated gastric fluid (SGF; 0.2% NaCl; 84 mM HCl; 0.32% pepsin; pH 1.2); (iv) 5 μM in stimulated intestinal fluid (SIF; 50 mM KP, pH 6.8; 10 mg/ml pancreatin); and (v) 5 μM in PBS (+Ca and Mg) (control treatment). The results are as follows: (i) 1 μM in mouse plasma, t1/2>6 hr at 37° C.; (ii) 1 μM in PBS, t1/2>6 hr at 37° C.; (iii) 5 μM in SGF, t1/2>3 hrs at 37° C.; (iv) 5 μM in SIF, t1/2>3 hrs at 37° C.; and (v) 5 μM in PBS, t1/2>3 hr at 37° C. The “t1/2” values are the maximum time employed for the respective assays.

Data set [3] in a line: Intravenous and oral pharmacokinetic study in mice. The class given is in vivo. To be noted: for VSS: dihydrochloride. Here is the method:
A pharmacokinetic study was conducted with mice (Charles river) (N=3). The animals had free access to water and standard laboratory chow under a controlled 12 hour light-dark cycle. After at least one week of an acclimation period, the mice were administrated a dose of 5 mg/kg of the title compound ((S))-2-amino-6-((3-aminopropyl)amino)hexanoic acid dihydrochloride) intravenously or 10 mg/kg orally. For both intravenous and oral administration, the compound was dissolved in saline. After intravenous administration, blood samples were collected at 10 min, 30 min, 1, 2, 4, 8 and 24 hours. For oral gavage, blood samples were collected at 15 min, 30 min 1, 2, 4, 8 and 24 hours. The blood samples were collected in polythene tubes with heparin sodium 100 unit/mL and centrifuged at 6000×g for 10 min to obtain plasma, which was stored at −20° C. until analysis.
The title compound concentration in mouse plasma was quantitated using an LC/MS/MS (API 4000, AB SCIEX). Briefly, 50 μl mouse plasma was added to 100 μl acetonitrile with internal standard (Diltiazem 10 ng/ml). The mixture was vortexed and centrifuged, and 5 μl supernatant was injected into LC/MS/MS for analysis. The separation was performed on a Waters C18 column (2.1×50 mm, […] particle size). The mobile phase consisted of 0.2% pentafluoropropionic acid in water:acetonitrile by gradient elution. A Sciex API 4000 mass spectroscopy system equipped with an electrospray source in the positive-ion multiple reaction monitoring (MRM) mode was used for detection. The MRM transitions monitored for the title compound and diltiazem were m/z 204.4/84.2 and m/z 415/178, respectively. The retention time is 12.5 min for (S)-2-amino-6-((3-aminopropyl)amino)hexanoic acid and 14 min for diltiazem. The quantitation ranged from 25 to 1000 ng/ml.

The nature of data set [4]: Predicted concentration-time profile for oral dosing in drinking water. To be noted: 10 mg/kg/day in drinking water, modeled as six oral doses over 12 hrs, plasma. On the procedure:
The maximum predicted concentration is 0.82 μg/mL and the minimum concentration 0.1 μg/mL. The dose can be adjusted proportionally to achieve the desired concentrations.

A further data set concerns 3T3-L1 adipocytes. As to the kind of experiment: Restoring glucose uptake in insulin-stimulated 3T3-L1 cells exposed to 4-HNE and H2O2 (FIG. 13). It is filed as cell-based, mouse. To be noted: 10 μM pretreatment 12 hours, then 4HNE and H2O2 4 hours. On the procedure:
Insulin-stimulated 3T3-L1 adipocytes were pretreated with the drug (S)-2-amino-6-((3-aminopropyl)amino)hexanoic acid dihydrochloride (10 μM) for 12 hours followed by exposure to 4HNE and H2O2 for an additional 4 hours. The amounts of glucose taken up by the 3T3-L1 adipocytes were measured by the MRM methods described above. The results in FIG. 13 show the effect of the drug in restoring glucose uptake in insulin-stimulated 3T3-L1 cells exposed to 4-HNE and H2O2: Control cells, no insulin (C− No Ins); control cells, with insulin (C+ Ins); 4HNE+H2O2-treated cells (4HNE/H2O2) and cells treated with drug+4HNE+H2O2 (“APL”).
Insulin-stimulated 3T3-L1 adipocytes were pretreated with the drug (S)-2-amino-5-((6-aminohexyl)amino)pentanoic acid dihydrochloride (10 μM) for 12 hours followed by exposure to 4HNE and H2O2 for an additional 4 hours. The amounts of glucose taken up by the 3T3-L1 adipocytes were measured by the MRM methods described above. FIG. 13 includes the results: cells treated with (S)-2-amino-5-((6-aminohexyl)amino)pentanoic acid trihydrochloride (MC-180351).
Insulin-stimulated 3T3-L1 adipocytes were pretreated with the drug (S)-2-amino-5-(([…])amino)pentanoic acid dihydrochloride (10 μM) for 12 hours followed by exposure to 4HNE and H2O2 for an additional 4 hours. The amounts of glucose taken up by the 3T3-L1 adipocytes were measured by the MRM methods described above. FIG. 13 includes the results: cells treated with (S)-2-amino-5-((5-aminopentyl)amino)pentanoic acid trihydrochloride (MC-180352).

Results on one compound are retold here after patent US11596615B2, “Compositions and methods for treatment of insulin resistance” (Temple University—Of The Commonwealth System Of Higher …, priority 2016, dated 2023).

Counter-ions that a name gives are not always drawn.

The half-life is the time needed for the level to fall by half in the phase considered. Read a low half-life as rapid decline. Broadly, the microsomal CLint is a measure of how fast metabolising enzymes remove a compound, apart from limits set by blood flow. A high value points to rapid turnover. For orientation: Cmax means the highest concentration seen after dosing. What is called Tmax is the time from dosing to the highest level. A word on the bioavailability: it is the share of a dose that reaches the circulation, judged against a reference dose that is usually intravenous. Lower therefore signals little systemic uptake.

Turning to `NCCCNCCCC[C@H](N)C(=O)O` [APL, (S)-2-amino-6-((3-aminopropyl)amino)hexanoic acid dihydrochloride], the half-life at 1 μM in data set [1] is above 1 h; in data set [2] (1 μM in PBS (with Ca and Mg)), above 6 h. This compound also yielded a microsomal CLint at 1 μM in data set [1] below 23 µL/min/mg. For the same compound, the half-life at 5 μM in data set [2] (5 μM in PBS (+Ca and Mg)) is above 3 h; in data set [2] (simulated gastric fluid (SGF) with pepsin, 5 μM in SGF (pH 1.2, pepsin)), above 3 h; in data set [2] (simulated intestinal fluid (SIF) with pancreatin, 5 μM in SIF (pH 6.8, pancreatin)), above 3 h. Moreover, the VSS amounted to 0.4 L/kg in data set [3] (IV, 5 mg/kg); 2.12 L/kg in data set [3] (PO, 10 mg/kg, listed as (S)-2-amino-6-((3-aminopropyl)amino)hexanoic acid dihydrochloride); 2.1 L/kg in data set [3] (PO, 10 mg/kg, listed as (S)-2-amino-6-((3-aminopropyl)amino)hexanoic acid). Further, the AUCtot was 4.72 μg*hr/m in data set [3] (IV, 5 mg/kg, plasma) and 10.45 μg*hr/m in data set [3] (PO, 10 mg/kg, plasma). Further, in data set [3] (PO, 10 mg/kg), the CL came to 0.285 L/h. The Cmax came to 8360 ng/mL in data set [3] (mouse, IV, 5 mg/kg, plasma) and 1440 ng/mL in data set [3] (mouse, PO, 10 mg/kg, plasma). In data set [3] (mouse, plasma, IV, 5 mg/kg), this compound gave a clearance of 5.17 mL/min. For the same compound, the half-life in data set [3] (mouse, plasma, IV, 5 mg/kg) was 2.53 h; in data set [3] (mouse, plasma, PO, 10 mg/kg) it was 3.25 h. In addition, the Tmax in data set [3] (mouse, plasma, PO, 10 mg/kg) stood at 3.33 h. Moreover, the Vd in data set [3] (mouse, plasma, iv, 5 mg/kg, IV, 5 mg/kg, read-out: VSS) was 0.414 L/kg. The compound also returned a bioavailability in data set [3] (mouse, plasma, oral, 10 mg/kg, PO 10 mg/kg vs IV 5 mg/kg) of around 100%. Also, the maximum predicted concentration in data set [4] is 0.82 µg/mL. Besides, the minimum predicted concentration in data set [4] was 0.1 µg/mL. Also, the GLUT4 carbonylations entry in the data set with 3T3-L1 adipocytes is recorded as “reduce GLUT4 carbonylations”. Further, the “glucose uptake impairment induced by 4-HNE and H2O2” value in the data set on 3T3-L1 adipocytes (FIG. 13) is “prevent glucose uptake impairment induced by 4-HNE and H2O2”.
